Laboratory results: patent US8653032B2, “Pharmaceutical composition for preventing / treating TRPV1 activity-related and inflammation-related diseases or conditions containing maillard peptide separated from well-aged traditional soy sauce as active ingredient” (Korea Food Research Institute, priority 2009, dated 2014)

Test system: COX-2
Assay: COX-2 promoter reporter gene (luciferase) assay, COX-2 induced with TPA, cells transfected with TRPV1 of human
Type: cell-based
Conditions: Maillard peptides 0.1% and 0.2%
Experimental: In order to measure COX-2 activity inhibition effect of Maillard peptides of the present invention, the following experiment was performed.
[…] cells were cultivated in the growth medium (DMEM, 10% calf serum, 100 units/ml penicillin, 100 μg/ml streptomycin) at 37° C., atmosphere: air 95% (v/v), carbon dioxide, 5% to generate cells growing exponentially; the medium was removed, washed with PBS, and treated with trypsin to separate the cultivated cells; and the separated cells were placed in the medium containing serum to inactivate trypsin. Centrifugal filtration was performed at 200/g for 2 min to obtain cell pellets. […] The transformed plasmid cells were washed with PBS, and dissolution buffer (125 mM Tris pH 7.8, 10 mM CDTA, 10 mM DTT, 50% glycerol, 5% triton X-100) was added to destroy the cells and obtain supernatant liquid, and the amount (concentration) of protein was quantified with Bradford assay. Luciferase activity was measured by adding 100 μl of buffer(20 mM trysin, 1.07 mM (MgCO3)4Mg(OH)2H20, 2.67 mM MgSO4, 0.1 mM EDTA, 33.3 mM DTT, 270 μM coenzyme A(Lithium salt), 470 μM luciferin, 530 μM ATP) and measuring light emission with Luminometer (LUMAT LB 9501/16) for 20 min. […]

C=C(C)[C@]12C[C@@H](C)[C@@]34O[C@](Cc5ccccc5)(O[C@@H]1[C@@H]3C=C(COC(=O)Cc1ccc(O)c(OC)c1)C[C@]1(O)C(=O)C(C)=C[C@@H]41)O2 [resiniferatoxin]
COX-2 activity induced by TPA: decreased
